# Assay results published in patent US5164411A, “Pyrethroid compositions” (priority 1991, dated 1992).
# What was measured:
# [1] = test system: mammals and certain species of fish; experiment: Mammalian toxicology and fish toxicity, summary of the tests; format: in vivo, rat; fish; settings: at rates giving commercial control of target crop insects
# Method: In the 90-day feeding study, conducted in compliance with EPA guideline 82-1, the compound under test was administered continuously in the diet to groups of rats for at least ninety days at concentrations of 0, 150, and 1500 ppm to groups of fifteen Sprague-Dawley rats for cypermethrin and 0, 10, 50, 150, 250, 500, and 900 ppm to groups of ten Fisher 344 rats for sigma-cypermethrin. (The rates for sigma-cypermethrin were lower, because it was expected to be more toxic than cypermethrin.) The cypermethrin isomer content (weight %) of the sigma-cypermethrin technical product used in this study was total isomers--88.2%, S-isomers--82%, cis/trans ratio--53/47. Individual body weight and food consumption values were recorded weekly. At termination, hematology and clinical chemistry determinations were conducted and organ weights were obtained for adrenals, brain, heart, kidneys, liver, and ovaries or testes. […]
# Multigeneration studies were conducted in compliance with EPA guideline 83-4 and provide information on reproductive parameters as well as neonatal morbidity and mortality for multiple generations. […] Body weights and food consumption were recorded at regular intervals. […]
# Lepidoptera = experiment: Foliar evaluation, average over Lepidoptera; format: in vivo; settings: laboratory
# Method: Cypermethrin and sigma-cypermethrin were tested by foliar application at various concentrations in aqueous solutions containing 9.75% acetone and 0.25% octylphenoxypolyethoxyethanol. Insect species utilized included the cabbage looper (Trichoplusia ni), southern armyworm (Spodoptera eridania), Mexican bean beetle (Epilachna varivestis), tobacco budworm (Heliothis virescens), and corn earworm (Heliothis zea).
# For all insects, pinto beans (Phaseolus vulgaris) plants were treated with the test solutions. The test solutions were applied with a sprayer to the upper and lower surfaces of the plant leaves to runoff. The plants were then allowed to dry and were severed at the base of the stem before being placed in cups. Ten second instar individuals of the appropriate insect species, except the tobacco budworm and corn earworm, were placed in each cup and the cup covered. Tests with the tobacco budworm and corn earworm used four replicates with each replicate containing five second instar insects. In all tests, mortality was read 48 hours later. The sigma-cypermethrin used in the foliar evaluations was the product of Example 2.
structure (smiles),measurement,setting,value
"CC1(C)C(C=C(Cl)Cl)C1C(=O)O[C@H](C#N)c1cccc(Oc2ccccc2)c1 (mixture of isomers) [sigma-cypermethrin, (S)(cyano)(3-phenoxyphenyl)methyl cis/trans-3-(2,2-dichloroethenyl)-2,2-dimethylcyclopropanecarboxylate]",toxicity relative to cypermethrin,[1],significantly less toxic to mammals and certain species of fish
same,average effectiveness relative to cypermethrin,Lepidoptera,1.9 times
